# Experimental data published in paper PMC3273640 (Journal of Molecular Biology, 2011).
# Assay: CD measurements of folding in water/TFE mixtures
# Assay type: physicochemical
# Details: CD in water/TFE mixtures (>= 2 M TFE), fit with Eq. S11
row,folding free energy [kcal/mol],Substance
1,4.8 ± 0.2,Ac-CGWWLALALALALALALALALALALWWA-NH2 [WALP27]
2,4.6 ± 0.2,Ac-CGWWLALALALALALALALALWWA-NH2 [WALP23]
